# Measured values as given in ChEMBL document CHEMBL4725220, “Small molecule inhibitors of IκB kinase β: A chip-based screening and molecular docking simulation” (Bioorg Med Chem, 2020).
# Molecular target: T1, Inhibitor of nuclear factor kappa-B kinase subunit beta (Homo sapiens, UniProt O14920)
# T1 sequence (O14920 whole entry): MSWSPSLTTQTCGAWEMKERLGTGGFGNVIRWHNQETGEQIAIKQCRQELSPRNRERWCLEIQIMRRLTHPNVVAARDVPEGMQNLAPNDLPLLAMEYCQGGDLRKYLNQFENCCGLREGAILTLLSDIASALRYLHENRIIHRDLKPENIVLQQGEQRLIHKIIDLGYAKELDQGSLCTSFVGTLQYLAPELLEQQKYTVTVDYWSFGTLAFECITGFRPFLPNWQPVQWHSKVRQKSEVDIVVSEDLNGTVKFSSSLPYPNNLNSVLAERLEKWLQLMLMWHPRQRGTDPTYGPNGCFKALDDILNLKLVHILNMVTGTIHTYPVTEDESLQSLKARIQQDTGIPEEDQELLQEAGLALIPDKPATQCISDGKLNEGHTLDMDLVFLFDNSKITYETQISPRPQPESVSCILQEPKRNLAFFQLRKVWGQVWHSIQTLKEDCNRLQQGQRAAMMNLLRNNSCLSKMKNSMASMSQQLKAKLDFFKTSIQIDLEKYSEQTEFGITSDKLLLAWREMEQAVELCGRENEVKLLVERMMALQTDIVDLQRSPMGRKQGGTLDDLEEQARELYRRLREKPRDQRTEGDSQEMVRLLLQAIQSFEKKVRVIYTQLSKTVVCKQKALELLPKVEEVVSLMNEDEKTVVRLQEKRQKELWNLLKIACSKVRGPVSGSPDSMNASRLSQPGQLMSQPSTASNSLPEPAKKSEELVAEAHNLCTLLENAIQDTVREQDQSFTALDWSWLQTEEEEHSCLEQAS
# Assay: Inhibition of IKKbeta (unknown origin) assessed as substrate phosphorylation using IkappaBalpha as substrate incubated for 1 hr in presence of ATP by chip-based fluorescence assay
row,Structure (SMILES),IC50 [µM]
1,O=C(c1ccc(Nc2nccc(-c3cc4ccccc4s3)n2)cc1)N1CCC(N2CCCC2)CC1,6.46
2,O=C1C=C2C[C@]3(O)COc4c(ccc(O)c4O)C3=C2C=C1O,2.18
3,O=C(O)C1=CC(=C(c2ccc(O)c(C(=O)O)c2)c2ccc(O)c(C(=O)O)c2)C=CC1=O [AURINTRICARBOXYLIC ACID],5.4
4,COc1ccc(-c2cc(=O)c3c(O)cc(O[C@@H]4O[C@H](CO[C@@H]5O[C@@H](C)[C@H](O)[C@@H](O)[C@H]5O)[C@@H](O)[C@H](O)[C@H]4O)cc3o2)cc1O [DIOSMIN],3.89
5,O=c1oc2c(O)c(O)cc3c(=O)oc4c(O)c(O)cc1c4c23 [ELLAGIC ACID],1.98
